Legend:
[1] = tested on: Microvascular Endothelial Cells (MVEC); assay: MTT growth inhibition of MVEC; format: cell-based; conditions: Endothelial cell, 96 h, 4 days culture with drug, read-out: IG50 on inhibiting growth of MVEC
Description: In Vitro Anti-Tumor Activity Test
Put cell suspension into centrifugal tubes with a pipette under sterile conditions, then the cell suspension was centrifuged for 3 minutes at 1300 rpm. Discarded the supernatant lightly and added fresh culture medium. Mixed the cells by pipetting, then transferred the cells into culture flasks, and put them into the CO2 incubator. Changed the culture medium once after 24 hours.
Human prostate cancer cells (DU145, PC-3) were cultured in a medium containing RPMI1640 basic medium supplemented with 10% heat-inactivated FBS, 100 IU/mL penicillin, 100 μg/mL streptomycin and 1 mmol/L L-glutamine. Human breast carcinoma cells (T47D, MDA-MB231) were cultured in a medium containing RPM11640 basic medium supplemented with 10% heat-inactivated FBS, 5 μg/mL insulin, 100 IU/mL penicillin, 100 μg/mL streptomycin and 1 mmol/L L-glutamine. Human breast carcinoma cells (MCF-7) were cultured in a medium containing DMEM basic medium supplemented with 10% heat-inactivated FBS, 5 μg/mL insulin, 100 IU/mL penicillin, 100 μg/mL streptomycin and […]. Murine Lewis lung cancer cells (LL/2), murine melanoma cells (B16FD) and Microvascular Endothelial Cells (MVEC) were cultured in a medium containing DMEM basic medium supplemented with 10% heat-inactivated FBS, 4.5 g/L glucose, 1.5 g/L NaHCO3, 100 IU/mL penicillin, 100 μg/mL streptomycin and 4 mmol/L L-glutamine. All these cell lines were incubated at 37° C. biochemical incubator with 5% CO2 saturated humidity.
After resuscitation, the cells were passed for 2-3 generations till they became stable, then they were used for the experiments. Each passage was based on the standard that all cells were spread over the bottoms of culture flasks.
Cells were digested off from the bottoms of culture flasks with trypsin (0.25%). The cell dissociation buffer was transferred into centrifuge tubes, added medium to stop the digestion, and centrifuged for 3 minutes at 1300 rpm. Discarded the supernatant lightly and added fresh culture medium (5 mL). Mixed the cells by pipetting, then added 10 μL of the cell suspension into the cell counting plate, and adjusted the cell concentration to 2×10^4 cells/mL. Added 100 μL of the cell suspension to all wells on the 96 well plates, except A1 well as the blank control. Put the plates into the biochemical incubator for 24 hours and to make sure the cells grew along the walls.
The drugs were dissolved in 80 mmol/L DMSO first, and then diluted the drugs with ethanol to 8 mmol/L. The solution was further diluted with the culture medium to different concentrations as 160 μmol/L, 120 μmol/L, 80 μmol/L, 40 μmol/L, 20 μmol/L and 10 μmol/L. Added 100 μL of the drug solution to each well on the 96 well plates. Therefore, the final concentrations of the drugs that were added to the cells were 80 μmol/L, 40 μmol/L, 20 μmol/L, 10 μmol/L and 5 μmol/L, and each concentration were repeated in three parallel wells. Put the culture plates into the biochemical incubator to culture continuously for 4 days.
Added 50 μL MTT liquids (2 mg/mL) into each well, put the culture plates into the biochemical incubator for 4 h, discarded MTT liquids (TCC), added 200 μL DMSO, then oscillated for 10 minutes on the magnetic oscillator to make sure that the survived cells and the reaction product of MTT were fully dissolved. Detected and recorded the absorbance (OD) values of each well at the wavelength of 570 nm using the microplate reader. The OD values of cells without tested drugs were used as control. The cell growth inhibition rates under each drug concentration were calculated by the following formula. […] Inhibition rate of growth(%)=(1−The absorbance(OD)of cells with tested drugs/The absorbance(OD)of the blank control group)×100%
The absorbance (OD) of cells with tested drugs: OD value is measured with the test drugs.
The absorbance (OD) of the blank control group: OD value is measured without the test drugs. […]

[2] = tested on: Rat aortic ring; assay: Rat Aortic Ring Assay; format: cell-based; conditions: for Rat Aortic Ring Assay (10 ug/ml), result in words: observed on the sixth day; for inhibition at 10 µg/mL: Rattus norvegicus, 10 ug/ml, compared with blank control, sixth day
Source text: Rat Aortic Ring Assay • 1) 6 week old SD […] (Sprague Dawley) were selected for the experiments. Cleaned abdominal skin with 75% ethanol to disinfect, and then anesthetized the mice with ether, • 2) Carefully removed the abdominal aortas and transferred the aortas to normal saline. Excessive vascular tissues were carefully removed with scissors. • 3) The aortas were rinsed with normal saline until no blood stain remained. • 4) Sectioned the aortas into one millimeter depth arterial slices with ophthalmological scissors. • 5) Add 50 μL pre-thawed Matrigel to each well of the pre-cooled 96 well cell culture plates, and embedded the ring-shaped mouse aortas in collagen gel. • 6) Incubated for 60 minutes at 37° C. to solidificate the gel. • 7) Added DMEM culture solution containing 10% FBS, along with different concentrations of the selected compounds into the wells and cultured in the incubator. Every compound was repeated in no less than 3 wells. • 8) Replaced with the fresh medium and changed the medicine once on the third day. • 9) Took out the pates on the sixth day, and observed the vascular growth with Microscope (OLYMPUS, DP70, Japan) and took photographs(×100). Randomly chose 3 arterial rings to photograph and calculated the area covered by micro-vascular with Image Pro Plus software. The inhibition rate is calculated as:
[formula] • Evaluation criteria: ⋆inhibition rate[…]; ⋆⋆inhibition rate 60-90%; ⋆⋆⋆inhibition rate>90%.

[3] = molecular target: VEGFR-2 (Homo sapiens, UniProt P35968); assay: VEGFR-2 inhibition rate test (kinase assay kit, colorimetric ELISA); conditions: concentration not given
Sequence of VEGFR-2 (P35968 20-1356): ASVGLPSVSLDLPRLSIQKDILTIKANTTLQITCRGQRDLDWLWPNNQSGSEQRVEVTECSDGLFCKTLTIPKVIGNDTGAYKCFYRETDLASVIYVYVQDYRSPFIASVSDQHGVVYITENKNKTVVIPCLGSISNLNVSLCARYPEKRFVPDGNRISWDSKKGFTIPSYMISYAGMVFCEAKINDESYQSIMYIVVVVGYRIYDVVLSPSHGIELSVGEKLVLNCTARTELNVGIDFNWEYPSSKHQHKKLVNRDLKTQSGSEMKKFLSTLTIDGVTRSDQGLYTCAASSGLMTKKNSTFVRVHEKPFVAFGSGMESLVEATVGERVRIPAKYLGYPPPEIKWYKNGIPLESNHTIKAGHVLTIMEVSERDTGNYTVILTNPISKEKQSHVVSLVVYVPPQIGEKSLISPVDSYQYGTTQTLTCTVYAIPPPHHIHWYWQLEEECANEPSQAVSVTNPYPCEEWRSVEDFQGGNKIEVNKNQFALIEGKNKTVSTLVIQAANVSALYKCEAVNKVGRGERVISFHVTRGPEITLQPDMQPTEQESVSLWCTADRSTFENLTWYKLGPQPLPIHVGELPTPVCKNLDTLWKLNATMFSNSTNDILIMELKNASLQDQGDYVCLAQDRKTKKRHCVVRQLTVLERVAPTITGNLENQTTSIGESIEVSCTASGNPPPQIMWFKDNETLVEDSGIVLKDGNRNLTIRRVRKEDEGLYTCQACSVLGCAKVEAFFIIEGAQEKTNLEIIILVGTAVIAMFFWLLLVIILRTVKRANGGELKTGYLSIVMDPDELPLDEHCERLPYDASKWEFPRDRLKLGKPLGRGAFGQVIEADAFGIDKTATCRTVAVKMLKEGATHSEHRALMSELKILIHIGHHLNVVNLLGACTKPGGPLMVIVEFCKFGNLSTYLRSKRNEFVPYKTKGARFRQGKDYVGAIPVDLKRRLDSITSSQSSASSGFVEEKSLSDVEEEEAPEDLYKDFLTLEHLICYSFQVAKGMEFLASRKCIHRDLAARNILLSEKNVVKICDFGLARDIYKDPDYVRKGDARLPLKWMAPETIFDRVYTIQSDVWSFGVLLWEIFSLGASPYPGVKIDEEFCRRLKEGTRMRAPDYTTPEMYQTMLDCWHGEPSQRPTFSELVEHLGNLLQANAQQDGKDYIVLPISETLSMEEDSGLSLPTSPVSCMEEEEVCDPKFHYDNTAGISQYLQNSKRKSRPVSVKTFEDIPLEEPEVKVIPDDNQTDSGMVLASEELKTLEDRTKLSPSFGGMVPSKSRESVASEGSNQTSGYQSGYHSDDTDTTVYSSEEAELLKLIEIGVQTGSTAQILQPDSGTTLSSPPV

Row | Structure (SMILES) | IC50 [1] [µM] | Rat Aortic Ring Assay (10 ug/ml), result in words [2] | Kinase inhibition rate (VEGFR-2) [3] | inhibition at 10 µg/mL [2] [%]
1 | Fc1ccccc1Nc1nnnc2ccc(Cl)nc12 [Example 91, 6-chloro-4-(2-fluoroanilino)pyrido[3,2-d][1,2,3]triazine] | 10.8 | No significant inhibition |  | 
2 | CCOc1cc2nnnc(Nc3ccc(Cl)cc3)c2cc1OC [Example 33, 6-methoxy-7-ethoxy-4-(4-chloroanilino)-benzo[d][1,2,3]triazine] | 26.5 |  |  | 
3 | Fc1cc(Nc2nnnc3ccc(Cl)nc23)ccc1Br [Example 79, 6-chloro-4-(3-fluoro-4-bromoanilino)-pyrido[3,2-d][1,2,3]-triazine] | 9.56 | Almost complete inhibition (10 μg/mL), vascular ring was dead |  | 
4 | Clc1cccc(Nc2nnnc3ccc(Cl)nc23)c1 [Example 88, 6-chloro-4-(3-chloroanilino)pyrido[3,2-d][1,2,3]triazine] | 12.7 | Almost complete inhibition (10 μg/mL), vascular ring was dead | 2.39 | 
5 | CCCCCOc1cc2nnnc(Nc3ccc(F)c(Cl)c3)c2cc1OC [Example 55, 6-methoxy-7-pentyloxy-4-(3-chloro-4-fluoroanilino)benzo[d][1,2,3]triazine] | 14.8 |  | −0.53 | 
6 | CCOc1cc2nnnc(Nc3ccc(Cl)c(Cl)c3)c2cc1OC [Example 32, 6-methoxy-7-ethoxy-4-(3,4-dichloroanilino)-benzo[d][1,2,3]triazine] | 14.3 |  |  | 
7 | COc1cc2c(Nc3ccc(Cl)c(Cl)c3)nnnc2cc1OCCCCl [Example 65, 6-methoxy-7-chloropropoxy-4-(3,4-dichloroanilino)-benzo[d][1,2,3]triazine] | 11 |  |  | 
8 | CCCCCOc1cc2nnnc(Nc3ccc(Cl)c(Cl)c3)c2cc1OC [Example 48, 6-methoxy-7-pentyloxy-4-(3,4-dichloroanilino)-benzo[d][1,2,3]triazine] | 16.9 |  | −21.65 | 
9 | Clc1ccc2nnnc(Nc3ccccc3)c2n1 [Example 78, 6-chloro-4-anilino-pyrido[3,2-d][1,2,3]triazine] | 10.7 | No significant inhibition in the previous 3 days, but vascular ring | 15.87 | 
10 | COc1cc2c(Nc3cc(Cl)cc(Cl)c3)nnnc2cc1OCCCCl [Example 63, 6-methoxy-7-chloropropoxy-4-(3,5-dichloroanilino)-benzo[d][1,2,3]triazine] | 28.8 |  | −9.97 | 
11 | FC(F)(F)Oc1ccc(Nc2nnnc3ccc(Cl)nc23)cc1 [Example 87, 6-chloro-4-(4-trifluoromethoxyanilino)pyrido[3,2-d][1,2,3]triazine] | 11.5 | Almost complete inhibition (10 μg/mL), vascular ring was dead |  | 
12 | Clc1ccc2nnnc(Nc3ccc(Cl)c(Cl)c3)c2n1 [Example 82, 6-chloro-4-(3,4-dichloroanilino)pyrido[3,2-d][1,2,3]triazine] | 9.19 |  |  | > 80
13 | COc1cc2c(Nc3ccc(OC(F)(F)F)cc3)nnnc2cc1OCCCCl [Example 70, 6-methoxy-7-chloropropoxy-4-(4-trifluoromethoxyanilino)-benzo[d][1,2,3]triazine] | 23.2 |  | 16.65 | > 50
14 | Fc1cc(F)cc(Nc2nnnc3ccc(Cl)nc23)c1 [Example 81, 6-chloro-4-(3,5-difluoroanilino)pyrido[3,2-d][1,2,3]triazine] | 10.3 | Almost complete inhibition (10 μg/mL), vascular ring was dead. | −6.44 | 
15 | CCCCCOc1cc2nnnc(Nc3ccc(F)c(C(F)(F)F)c3)c2cc1OC [Example 56, 6-methoxy-7-pentyloxy-4-(3-trifluoromethyl-4-fluoroanilino)-benzo[d][1,2,3]triazine] | 16.3 |  | −3.74 | 
16 | COc1cc2c(Nc3cccc(OC(F)(F)F)c3)nnnc2cc1OCCCCl [Example 69, 6-methoxy-7-chloropropoxy-4-(3-trifluoromethoxyanilino)-benzo[d][1,2,3]triazine] | 24.9 |  | −14.75 | 
17 | COc1cc2c(Nc3ccc(C)cc3)nnnc2cc1OCCCCl [Example 77, 6-methoxy-7-chloropropoxy-4-(4-methylanilino)-benzo[d][1,2,3]triazine] | 17.1 | Micro-vascular growth was significantly inhibited, affecting cell |  | 
18 | Clc1cc(Cl)cc(Nc2nnnc3ccc(Cl)nc23)c1 [Example 80, 6-chloro-4-(3,5-dichloroanilino)pyrido[3,2-d][1,2,3]triazine] | 7.93 | Almost complete inhibition (10 μg/mL), vascular ring was dead. |  | 
19 | Fc1ccc(Nc2nnnc3ccc(Cl)nc23)cc1Cl [Example 89, 6-chloro-4-(3-chloro-4-fluoroanilino)pyrido[3,2-d][1,2,3]triazine] | 9.85 |  | −0.25 | 
20 | CCCCOc1cc2nnnc(Nc3cccc(Br)c3)c2cc1OC [Example 25, 6-methoxy-7-n-butoxy-4-(3-bromoanilino)-benzo[d][1,2,3]triazine] | 16.8 |  | 5.61 | 
21 | COc1cc2c(Nc3ccc(F)c(C(F)(F)F)c3)nnnc2cc1OCCCCl [Example 73, 6-methoxy-7-chloropropoxy-4-(3-trifluoromethyl-4-fluoroanilino)-benzo[d][1,2,3]triazine] | 15.2 |  | 2.40 | 
22 | CCCCCOc1cc2nnnc(Nc3ccc(Cl)cc3)c2cc1OC [Example 49, 6-methoxy-7-pentyloxy-4-(4-chloroanilino)-benzo[d][1,2,3]triazine] | 25.3 |  |  | 
23 | FC(F)(F)c1ccc(Nc2nnnc3ccc(Cl)nc23)cc1 [Example 85, 6-chloro-4-(4-trifluoromethylanilino)pyrido[3,2-d][1,2,3]triazine] | 8.06 | No significant inhibition |  | 
24 | COc1cc2c(Nc3ccc(Cl)cc3)nnnc2cc1OCCCCl [Example 66, 6-methoxy-7-chloropropoxy-4-(4-chloroanilino)-benzo[d][1,2,3]triazine] | 38.6 |  | −10.15 | 
25 | CCCCOc1cc2nnnc(Nc3ccc(Cl)c(Cl)c3)c2cc1OC [Example 15, 6-methoxy-7-n-butoxy-4-(3,4-dichloroanilino)-benzo[d][1,2,3]triazine] | 15.5 |  |  | ~30

From patent US8349835B2, “Aromatic ring fused triazine derivatives and uses thereof” (Shenyang Pharmaceutical University, priority 2008, dated 2013)
